Experimental data as given in PubChem BioAssay (NCI).
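Values below derive from 48-hour exposures of cells grown in 96-well plates, with endpoints linearly interpolated between the two concentrations bracketing the appropriate inhibition level. TGI: concentration producing complete growth inhibition.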

What was measured:
Test in all cases: inhibition of tumour cell growth, NCI panel, 48 h
[1] = tested on: A549 NSCLC
[2] = tested on: HCT-116 colon
[3] = tested on: HT29 colon
[4] = tested on: K-562 leukemia
[5] = tested on: MDA-MB-435
[6] = tested on: NCI/ADR-RES ovarian
[7] = tested on: OVCAR-4 ovarian
[8] = tested on: RPMI-8226 leukemia
[9] = tested on: SF-539 CNS
[10] = tested on: SK-OV-3 ovarian
[11] = tested on: UACC-62 melanoma

SMILES	TGI [1] [µM]	TGI [2] [µM]	TGI [3] [µM]	TGI [4] [µM]	TGI [5] [µM]	TGI [6] [µM]	TGI [7] [µM]	TGI [8] [µM]	TGI [9] [µM]	TGI [10] [µM]	TGI [11] [µM]
C=CC(OC(C)=O)c1ccc(OC(=O)C(C)C)c(OC)c1 (configuration not stated)	38.7	22.5	6.09	11.6	15.6	60.8	16.2	4.28	22.6	30.3	31.5
CSCCCS/C1=C/CCCCCCCCCC1	> 100	> 100	> 100	> 100	> 100	> 100	> 100	> 100	> 100	> 100	> 100
CC12CC3OC(=O)C1COC14OC5(C2C1=O)C(O)(CCC1C4CC2OC24CC=CC(=O)C14C)C(=O)OC35C (configuration not stated)	> 100	29.2	> 100	> 100	32.9	> 100	> 100	71.4	28.4	> 100	27.6
CSc1cc(-c2ccccn2)nc(-c2ccccn2)c1	3.58	11.7	13	> 100	12.9	1	13.2	> 100	6.06	10.8	1.23
CSC1C(=O)Nc2ccc3ccccc3c21 (configuration not stated)	> 100	29.9	> 100		> 100	> 100	39.9	60.7	45.7	> 100	35.9
COc1cc2cc(C(=O)N3CC(CCl)c4c3cc(NC(=O)OCc3ccc([N+](=O)[O-])cc3)c3ccccc43)[nH]c2c(OC)c1OC (configuration not stated)	> 100	> 79.8	> 100		> 100	> 100	> 100	> 100	> 100	> 100	> 100
COc1ccc(/C=C/C(=O)c2cc(C(C)(C)C)c(O)c(C(C)(C)C)c2)cc1OC	> 100	48.6	60	> 89.6	21.2	49.7	> 92.9	12.8	52.1	> 100	40.1
COc1cc(C2=NNC(=O)c3ccccc3N2c2nc(-c3cccs3)nc3ccc(Br)cc23)cc(OC)c1OC	> 100	26.9	35.9		68.5	30	86.4	12.9	24.2	> 100	> 100
CCCCCCCCCCCCc1ccc(S(=O)(=O)O)cc1.[Zn+2]	> 100	> 100	> 100	> 100	> 100	> 100	> 100	> 100	> 100	> 100	> 100
O=c1oc2ccc([N+](=O)[O-])cc2c(Nc2ccc3c(c2)Sc2ccccc2O3)c1[N+](=O)[O-]	73.9	30.5	74.3	88.3	85	85.5	98.2	54.2	37.7	47.6	32.3
